The structures appear in SMILES notation. “Also recorded” adds a separate entry of the source. Read-outs that look alike come from different tables or passages of the source. Bounds are passed on as bounds.

In data set [1] the target is T1, mushroom tyrosinase (Agaricus bisporus, UniProt C7FF04). The conditions noted are these: cited from earlier work.
The subject of another data set is B16F10 cells. Details: method as in PMID 30856375. The conditions noted are these: cited from earlier work.
Data set [2] addresses T1, mushroom tyrosinase. In words: Mushroom tyrosinase inhibitory assay with L-dopa as substrate.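 For all read-outs here: enzyme activity followed as absorbance change at 475 nm in phosphate buffer pH 6.8, monitored continuously, IC50 derived from percent inhibition dose–response curves.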 The conditions noted are these: for inhibition at 100 µM: read-out: % Inhibition at 100 μM. The class given is biochemical.
Experimental: The mushroom tyrosinase activity assays for the synthetic compounds were conducted using a modified procedure from a previous study. In summary, a 96-well microplate was utilized, and 160 μl of phosphate buffer (50 mM, pH 6.8), 10 μl of mushroom tyrosinase (500 U/ml, dissolved in PBS), and 10 μl of the test compound (dissolved in DMSO) were added to each well. Then, 20 μl of L-dopa (7 mM, dissolved in PBS) was added to initiate the enzymatic reaction. The change in absorbance at 475 nm was continuously monitored using a spectrophotometer. […] The IC50 value, representing the compound’s inhibitory potency, was determined from dose–response curves of percentage inhibition.
Data set [3] has as its target T1, mushroom tyrosinase. In words: Determination of the inhibition type (Lineweaver–Burk plot analysis).
Where [4] appears, read: L-dopa substrate, ± SD, read-out: IC50 ± SD.

T1 sequence (C7FF04 1-392): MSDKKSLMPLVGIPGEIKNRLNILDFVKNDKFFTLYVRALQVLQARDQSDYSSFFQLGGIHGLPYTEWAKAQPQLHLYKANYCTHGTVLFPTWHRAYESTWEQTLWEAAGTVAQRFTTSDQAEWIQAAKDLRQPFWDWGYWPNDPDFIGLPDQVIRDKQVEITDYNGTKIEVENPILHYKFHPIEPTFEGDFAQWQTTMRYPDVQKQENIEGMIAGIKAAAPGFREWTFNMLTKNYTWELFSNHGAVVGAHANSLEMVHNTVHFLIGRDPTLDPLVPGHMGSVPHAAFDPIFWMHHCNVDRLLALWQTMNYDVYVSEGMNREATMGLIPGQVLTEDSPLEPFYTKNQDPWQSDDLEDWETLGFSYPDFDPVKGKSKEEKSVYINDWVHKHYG

`CN1CCN(C(=O)/C=C/c2ccc(O)cc2O)CC1` [C]: the “% inhibition” value on mushroom tyrosinase [1] (at 25 μM) is on record as 94.39%. Besides, in the data set on B16F10 cells, the Cellular tyrosinase activity result is given as “dose-dependently inhibited” and the Melanin content result is listed as “dose-dependently inhibited”.
As for `O=C(OCCN1CCN(c2ccc([N+](=O)[O-])cc2)CC1)c1ccccc1` [Compound 4a, 2-(4-(4-Nitrophenyl)piperazin-1-yl)ethyl benzoate], the melting point fell in the range of 176 to 178 °C. Besides, the IC50 on mushroom tyrosinase [2] was 174.7 ± 0.68 µM. For the same compound, the inhibition at 100 µM on mushroom tyrosinase [2] (100 μM, L-dopa substrate, ± SD) amounted to 35.8 ± 3.24%.
Take `O=C(OCCN1CCN(c2ccc([N+](=O)[O-])cc2)CC1)c1ccccc1Br` [Compound 4b, 2-(4-(4-Nitrophenyl)piperazin-1-yl)ethyl 2-bromobenzoate]: the melting point is 185 to 187 °C. The compound also displayed an IC50 on mushroom tyrosinase [2] of more than 200 µM. Also, the inhibition at 100 µM on mushroom tyrosinase [2] (100 μM, L-dopa substrate, ± SD) is 20.6 ± 2.58%.
Taken in the same sequence, the figures for `O=C(OCCN1CCN(c2ccc([N+](=O)[O-])cc2)CC1)c1ccc(Cl)cc1Cl` [Compound 4c, 2-(4-(4-Nitrophenyl)piperazin-1-yl)ethyl 2,4-dichlorobenzoate] were 196 to 198 °C, more than 200 µM and 27.9 ± 3.09%.
`O=C(OCCN1CCN(c2ccc([N+](=O)[O-])cc2)CC1)c1ccc([N+](=O)[O-])cc1` [Compound 4d, 2-(4-(4-Nitrophenyl)piperazin-1-yl)ethyl 4-nitrobenzoate]: the melting point fell in the range of 172 to 174 °C. Further, at mushroom tyrosinase [2] (100 μM, L-dopa substrate, ± SD), the inhibition at 100 µM was 28.3 ± 2.89%. On mushroom tyrosinase [2] (setting [4]), the IC50 amounted to 203.2 ± 1.16 µM.
Taken in the same sequence, the figures for `O=C(OCCN1CCN(c2ccc([N+](=O)[O-])cc2)CC1)c1cccc([N+](=O)[O-])c1` [Compound 4e, 2-(4-(4-Nitrophenyl)piperazin-1-yl)ethyl 3-nitrobenzoate] were 181 to 183 °C, 24.9 ± 2.81% and more than 200 µM.
Taken in the same sequence, the figures for `O=C(OCCN1CCN(c2ccc([N+](=O)[O-])cc2)CC1)c1ccc([N+](=O)[O-])cc1Cl` [Compound 4f, 2-(4-(4-Nitrophenyl)piperazin-1-yl)ethyl 2-chloro-4-nitrobenzoate] were 203 to 205 °C, 35.1 ± 2.25% and more than 200 µM.
In turn, `COc1ccc(CC(=O)OCCN2CCN(c3ccc([N+](=O)[O-])cc3)CC2)cc1` [Compound 4g, 2-(4-(4-Nitrophenyl)piperazin-1-yl)ethyl 2-(4-methoxyphenyl)acetate] showed a melting point of 207 to 209 °C. Further, the IC50 at mushroom tyrosinase [2] is more than 200 µM. Further, at mushroom tyrosinase [2] (100 μM, L-dopa substrate, ± SD), the inhibition at 100 µM was 30 ± 4.04%.
In the same order, the values of `COc1ccc(C=O)c(C(=O)OCCN2CCN(c3ccc([N+](=O)[O-])cc3)CC2)c1OC` [Compound 4h, 2-(4-(4-Nitrophenyl)piperazin-1-yl)ethyl 6-formyl-2,3-dimethoxybenzoate] are 176 to 178 °C, 200.9 ± 1.32 µM and 26.9 ± 3.55%.
For `O=C(Cc1ccccc1)OCCN1CCN(c2ccc([N+](=O)[O-])cc2)CC1` [Compound 4i, 2-(4-(4-Nitrophenyl)piperazin-1-yl)ethyl 2-phenylacetate], the melting point lay within 178 to 180 °C. Besides, on mushroom tyrosinase [2], 184.2 ± 0.88 µM corresponded to half-maximal inhibition (IC50) and the inhibition at 100 µM is 39.4 ± 4.18%.
Compound `O=C(C=Cc1ccccc1)OCCN1CCN(c2ccc([N+](=O)[O-])cc2)CC1` [Compound 4j, 2-(4-(4-Nitrophenyl)piperazin-1-yl)ethyl cinnamate] yielded a melting point of 185 to 187 °C. The same compound displayed an IC50 against mushroom tyrosinase [2] of more than 200 µM. Besides, on mushroom tyrosinase [2] (100 μM, L-dopa substrate, ± SD), the inhibition at 100 µM was determined as 23.1 ± 3.6%.
In the same order, the values of `O=C(OCCN1CCN(c2ccc([N+](=O)[O-])cc2)CC1)c1cccnc1` [Compound 4k, 2-(4-(4-Nitrophenyl)piperazin-1-yl)ethyl nicotinate] are 168 to 170 °C, 82.7 ± 1.16 µM and 54.3 ± 4.58%.
`O=C(OCCN1CCN(c2ccc([N+](=O)[O-])cc2)CC1)c1cc2ccccc2[nH]1` [Compound 4l, 2-(4-(4-Nitrophenyl)piperazin-1-yl)ethyl 1H-indole-2-carboxylate] registered a melting point of 192 to 194 °C. On mushroom tyrosinase [2], this compound returned an IC50 of 72.55 ± 0.49 µM. The inhibition at 100 µM on mushroom tyrosinase [2] (100 μM, L-dopa substrate, ± SD) turned out to be 66.6 ± 4.12%. At mushroom tyrosinase [3] (Lineweaver–Burk plot, L-dopa substrate), the Inhibition mode entry is listed as “mixed inhibitor; also recorded: mixed-type inhibition”. Besides, the Vmax at mushroom tyrosinase [3] (inhibitor concentration 10 µM) is 65.79 mM/min. Moreover, the Vmax at mushroom tyrosinase [3] (inhibitor concentration 40 µM) turned out to be 64.10 mM/min. In addition, on mushroom tyrosinase [3] (inhibitor concentration 100 µM), the Vmax turned out to be 62.89 mM/min.
On to `O=C(OCCN1CCN(c2ccc([N+](=O)[O-])cc2)CC1)c1ccc([N+](=O)[O-])o1` [Compound 4m, 2-(4-(4-Nitrophenyl)piperazin-1-yl)ethyl 5-nitrofuran-2-carboxylate], for which, at mushroom tyrosinase [2] (100 μM, L-dopa substrate, ± SD), the inhibition at 100 µM was determined as 43.7 ± 3.18%. On mushroom tyrosinase [2] (setting [4]), the half-inhibitory concentration (IC50) came out at 175.3 ± 0.24 µM.
`COc1ccc(/C=C/C(=O)N2CCN(c3ccc(F)c(Cl)c3)CC2)cc1[N+](=O)[O-]` [D]: the IC50 on mushroom tyrosinase [1] is 0.51 µM.
With `O=C(c1ccccc1C(F)(F)F)N1CCN(Cc2ccc(F)cc2)CC1` [E], at mushroom tyrosinase [1], the IC50 is 0.48 ± 0.05 µM.
For `O=C(O)/C=C/c1ccc(O)c(O)c1` [caffeic acid], the Tyrosinase inhibitory potential entry at mushroom tyrosinase [1] was “almost inactive”.

Values taken from publication PMC10998383, “Nitrophenylpiperazine derivatives as novel tyrosinase inhibitors: design, synthesis, and in silico evaluations” (BMC Chemistry, 2024).
